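Tested at 5 concentrations; 48 h exposure; 96-well plates; endpoints linearly interpolated, else capped at highest concentration. GI50 is the concentration that inhibits growth by half. At the TGI there is no net growth.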
Legend:
Test in all cases: DTP human tumour cell line panel, 48 h
HOP-62 NSCLC = test system: HOP-62 NSCLC
HOP-92 NSCLC = test system: HOP-92 NSCLC
786-0 renal = test system: 786-0 renal
UACC-257 melanoma = test system: UACC-257 melanoma
IGROV1 ovarian = test system: IGROV1 ovarian
SW-620 colon = test system: SW-620 colon
MOLT-4 leukemia = test system: MOLT-4 leukemia
OVCAR-3 ovarian = test system: OVCAR-3 ovarian
DU-145 prostate = test system: DU-145 prostate
SK-MEL-5 melanoma = test system: SK-MEL-5 melanoma

| Compound | GI50 (HOP-62 NSCLC) [µM] | TGI (HOP-62 NSCLC) [µM] | GI50 (HOP-92 NSCLC) [µM] | TGI (HOP-92 NSCLC) [µM] | GI50 (786-0 renal) [µM] | TGI (786-0 renal) [µM] | GI50 (UACC-257 melanoma) [µM] | TGI (UACC-257 melanoma) [µM] | GI50 (IGROV1 ovarian) [µM] | TGI (IGROV1 ovarian) [µM] | GI50 (SW-620 colon) [µM] | TGI (SW-620 colon) [µM] | GI50 (MOLT-4 leukemia) [µM] | TGI (MOLT-4 leukemia) [µM] | GI50 (OVCAR-3 ovarian) [µM] | TGI (OVCAR-3 ovarian) [µM] | GI50 (DU-145 prostate) [µM] | TGI (DU-145 prostate) [µM] | TGI (SK-MEL-5 melanoma) [µM] | GI50 (SK-MEL-5 melanoma) [µM] |
| --- | --- | --- | --- | --- | --- | --- | --- | --- | --- | --- | --- | --- | --- | --- | --- | --- | --- | --- | --- | --- |
| COc1ccc(/C=C/C(=O)c2ccc(Nc3ncnc4ccccc34)cc2)cc1OC | 9.87 | 66.5 | 2.05 | 52.7 | 7.96 | > 100 | 20.3 | > 100 | 20.7 | > 100 | 3.51 | > 100 | 5.68 | 23.5 | 5.1 | > 100 | 8.16 | > 100 | – | – |
| CC(C)=CC(=O)Cc1nc2ccccc2[nH]c1=O | – | > 100 | – | 68 | – | > 100 | – | > 100 | – | > 100 | – | > 100 | – | > 100 | – | > 100 | – | – | > 100 | – |
| N#Cc1nc(-c2cccc(Br)c2)cc(-c2ccc(Nc3nc(N4CCCCC4)nc(N4CCCCC4)n3)cc2)c1N | 2.64 | 8.76 | 1.68 | 3.36 | 3.29 | > 100 | 2.98 | 29.8 | – | – | 1.53 | 3.48 | 1.1 | > 100 | 1.76 | 3.54 | 3.13 | 10.2 | 3.18 | 1.76 |
| O=S(=O)(O)C(F)(F)C(F)(F)C(F)(F)C(F)(F)F | – | > 100 | – | > 100 | – | > 100 | – | > 100 | – | > 100 | – | > 100 | – | > 100 | – | > 100 | – | – | > 100 | – |
| CCN=C1NN=C(c2ccccc2)c2cc(Cl)ccc2N1 | – | 48.2 | – | 47.5 | – | 34.1 | – | 34.3 | – | 70 | – | 63.8 | – | 94.8 | – | 43.7 | – | – | 30.7 | – |
| CCNC(=O)C(O)C1(O)CCC2[C@@H]3CCC4=CC(=O)C=C[C@]4(C)C3[C@@H](O)C[C@@]21C (stereo partly drawn) | – | > 100 | – | – | – | > 100 | – | > 100 | – | > 100 | – | > 100 | – | > 100 | – | > 100 | – | – | – | – |
| CCCCCCn1c(-c2ccc(C(=O)O/N=C(\N)c3ccc(OC)cc3)cc2)nc(-c2ccccc2)c1-c1ccccc1 | 1.9 | 4.66 | 1.12 | 2.61 | 0.276 | 0.833 | 4.07 | > 100 | 0.295 | 0.869 | – | – | 1.41 | 4.08 | – | – | 1.02 | 2.22 | 3.71 | 1.92 |
| COc1ccc(-c2ccc(/C=N/n3cn[nH]c3=S)o2)c([N+](=O)[O-])c1 | 62.2 | > 100 | – | – | 66.2 | > 100 | – | – | 39.6 | > 100 | 29.8 | > 100 | 16.3 | 50.8 | 33.9 | > 100 | 80.5 | > 100 | – | – |
| COc1ccccc1NC(=O)CC(=O)n1nc(C)c(N=Nc2ccccc2F)c1C | – | > 83.9 | – | > 100 | – | > 100 | – | > 100 | – | > 100 | – | > 100 | – | > 31.6 | – | > 100 | – | – | > 100 | – |
| c1ccc(-c2nc(Nc3ccc(-c4nc5ccccc5[nH]4)cc3)nc(N3CCOCC3)n2)cc1 | 1.73 | 3.52 | 1.38 | 3.05 | 0.257 | 1.25 | – | – | – | – | 0.627 | 2.17 | 1.33 | 3.53 | 1.52 | 2.98 | 1.21 | 2.49 | 3.15 | 1.69 |
| CCCOc1ccc(/C=C\c2cc(OC)c(OC)c(OC)c2)cc1 | – | > 100 | – | > 100 | – | > 100 | – | > 100 | – | > 100 | – | > 100 | – | – | – | > 100 | – | – | 40.7 | – |
| N#CCCc1nc2ccc(Br)cc2c(=O)n1-c1ccc(O)c([N+](=O)[O-])c1 | – | > 100 | – | 51.6 | – | 43.2 | – | 74.3 | – | 47.7 | – | 46.8 | – | 54.3 | – | 41.4 | – | – | 36.3 | – |
| COC(=O)c1c/c(=N\NC(=O)CC(=O)Nc2ccccc2Cl)c2ccccc2o1 | – | > 100 | – | – | – | > 100 | – | > 100 | – | > 100 | – | > 100 | – | > 100 | – | > 100 | – | – | > 100 | – |
| CCCCCCCCCCCCCCCCC(C(=O)O)C(O)(CC(=O)O)C(=O)O (stereo not drawn) | – | 34.1 | – | – | – | > 100 | – | > 100 | – | 46.4 | – | 46.6 | – | 61.6 | – | 35.8 | – | > 100 | > 100 | – |
| C#Cc1cccc(NC(=O)Nc2ccc(NC(=O)CCl)cc2)c1 | 19 | > 82.5 | – | – | 12.5 | 23.7 | > 82.5 | > 82.5 | 12.1 | 25.5 | 14.9 | 33.2 | 9.6 | 33.2 | 12.1 | 25.5 | 32.7 | > 82.5 | 28.7 | 15.1 |
| COc1ccc(Cl)cc1N1C(=O)C(Cl)=C(Nc2cccc(O)c2)C1=O | 23.7 | 74.8 | – | – | 21.1 | 60.2 | – | – | – | – | 27.4 | 63 | 15.4 | 49.4 | 11.5 | 36.5 | 21.8 | > 100 | 39.8 | 23 |
| N#Cc1c(NC(=O)c2cccs2)[n+]([O-])c2ccccc2[n+]1[O-] | > 100 | > 100 | 81.7 | > 100 | > 100 | > 100 | > 100 | > 100 | – | – | > 100 | > 100 | > 100 | > 100 | > 100 | > 100 | > 100 | > 100 | > 100 | 39.9 |
| CCCCCCCCCCCCCCCC(=O)NC1CCc2cc(O)c(O)c(O)c2-c2ccc(SC)c(=O)cc21 (stereo not drawn) | – | 25.4 | – | 8.28 | – | 33.3 | – | 26.7 | – | 25.3 | – | 19 | – | > 71.8 | – | 16.8 | – | – | 16 | – |

— PubChem BioAssay (NCI)
